Data published in Sander's compilation of Henry's law constants.
“And” between values parts separate entries of the source, which are not always exact repeats. Equal entries are not always repeated. Each block holds one molecule with its values, some of them ahead of it.

Experiment: Henry solubility constant Hcp at 298.15 K (mol/(m3 Pa))
[1] = reference: Hartkopf and Karger (1973)
[2] = reference: Warner et al. (1980)
[3] = reference: Souchon et al. (2004)
[4] = reference: Murphy et al. (1983a)
[5] = reference: McFall et al. (2020)
[6] = reference: Copolovici and Niinemets (2005)
[7] = reference: Schuhfried et al. (2015)
[8] = reference: Chang and Criddle (1995)

Henry solubility constant Hcp (reference: Dohányosová et al. (2004)): 2e-05 | Henry solubility constant Hcp (reference: Heidman et al. (1985)): 3.1e-05
Compound: CCC1CCCCC1 [ethylcyclohexane]

Henry solubility constant Hcp [1]: 0.0022
Compound: CCCOCCC [dipropyl ether]

Henry solubility constant Hcp (reference: Buttery et al. (1971)): 0.13
Compound: CCCCC/C=C/C=O [(E)-2-octenal]

Henry solubility constant Hcp (reference: Nguyen (2013)): 4300
Compound: CN(C)CCOCCO [dimethylaminoethoxyethanol]

Henry solubility constant Hcp (reference: Reichl (1995)): 9e-06
Compound: FC(F)(Cl)C(F)(F)Cl [1,2-dichlorotetrafluoroethane]

Henry solubility constant Hcp (reference: Amoore and Buttery (1978)): 12 | Henry solubility constant Hcp (reference: Khan and Brimblecombe (1992)): 12 | Henry solubility constant Hcp (reference: Khan et al. (1995)): 12 | Henry solubility constant Hcp (reference: Kim and Kim (2016)): 27 | Henry solubility constant Hcp (reference: von Hartungen et al. (2004)): 11
Compound: CC(C)CC(=O)O [3-methylbutanoic acid]

Henry solubility constant Hcp (reference: Bakierowska and Trzeszczyński (2003)): 0.00023
Compound: C1=CCCC1 [cyclopentene]

Henry solubility constant Hcp (reference: Nguyen (2013)): 1800
Compound: C1CN(CCOCCN2CCOCC2)CCO1 [dimorpholinodiethyl ether]

Henry solubility constant Hcp (reference: Ömür-Özbek and Dietrich (2005)): 0.082
Compound: CCC=CCCC=CC=O [trans-2,cis-6-nonadienal]

Henry solubility constant Hcp (reference: Buttery et al. (1965)): 0.06 | Henry solubility constant Hcp [3]: 0.035
Compound: CCCCCCC=O [heptanal]

Henry solubility constant Hcp (reference: Nguyen (2013)): 1300
Compound: CC(N)CO (stereo not drawn) [2-amino-1-propanol]

Henry solubility constant Hcp [4]: 0.016
Compound: Clc1ccc(Cl)c(-c2c(Cl)cc(Cl)c(Cl)c2Cl)c1 [2,2',3,4,5',6-hexachlorobiphenyl]

Henry solubility constant Hcp [5]: 9.2
Compound: C=CCc1ccc(O)c(OC)c1 [2-methoxy-4-(2-propenyl)-phenol]

Henry solubility constant Hcp (reference: Nguyen (2013)): 2900
Compound: OCCN1CCNCC1 [N-(2-hydroxyethyl)piperazine]

Henry solubility constant Hcp [6]: 0.00018
Compound: C=C1C=CC(C(C)C)CC1 (stereo not drawn) [β-phellandrene]

Henry solubility constant Hcp (reference: Rochester and Symonds (1973)): 0.45
Compound: CC(O)C(F)(F)F (stereo not drawn) [1,1,1-trifluoro-2-propanol]

Henry solubility constant Hcp (reference: Ondo and Dohnal (2007)): 0.43
Compound: C1COCO1 [1,3-dioxolane]

Henry solubility constant Hcp (reference: Sagebiel et al. (1992)): 7.7 and 7.1
Compound: COc1cc(C)ccc1O [4-methyl-2-methoxyphenol]

Henry solubility constant Hcp (reference: Goss et al. (2006)): 0.013 | Henry solubility constant Hcp (reference: Lei et al. (2004)): 6.1e-05 | Henry solubility constant Hcp (reference: Wu and Chang (2011)): 0.0066
Compound: OCCC(F)(F)C(F)(F)C(F)(F)C(F)(F)F [1H,1H,2H,2H-perfluorohexan-1-ol]

Henry solubility constant Hcp [6]: 0.00018
Compound: CC1=CCC(C(C)C)C=C1 (stereo not drawn) [α-phellandrene]

Henry solubility constant Hcp [1]: 0.0015
Compound: Fc1ccccc1 [fluorobenzene]

Henry solubility constant Hcp (reference: Brockbank et al. (2013)): 0.0027
Compound: Cc1ccc(Cl)cc1Cl [2,4-dichloro-1-methylbenzene]

Henry solubility constant Hcp (reference: Kwan (2001)): 0.81
Compound: O=C(O)C(F)(F)C(F)(F)C(F)(F)F [perfluorobutanoic acid]

Henry solubility constant Hcp [7]: 0.00034
Compound: CC1=CC[C@H](C(C)C)C=C1 [(R)-(−)-α-phellandrene]

Henry solubility constant Hcp (reference: Saidman et al. (1966)): 0.00011
Compound: C1CC1 [cyclopropane]

Henry solubility constant Hcp [5]: 4.3
Compound: CCCc1ccc(O)c(OC)c1 [4-propylguaiacol]

Henry solubility constant Hcp (reference: Roberts and Pollien (1997)): 0.021 | Henry solubility constant Hcp [3]: 0.014
Compound: CSSSC [2,3,4-trithiapentane]

Henry solubility constant Hcp (reference: Jönsson et al. (1982)): 1.8e-06 | Henry solubility constant Hcp (reference: Park et al. (1997)): 1.9e-06
Compound: CCCCCCCCC [nonane]

Henry solubility constant Hcp (reference: Chaintreau et al. (1995)): 0.98
Compound: Cc1cncc(C)n1 [2,6-dimethylpyrazine]

Henry solubility constant Hcp (reference: Fenclová et al. (2014)): 0.041
Compound: CCOC(=O)CC [ethyl propanoate]

Henry solubility constant Hcp (reference: Wieland et al. (2015)): 0.32
Compound: C/C=C/C(=O)C1=C(C)C=CCC1(C)C [(E)-β-damascenone]

Henry solubility constant Hcp (reference: Sarraute et al. (2006)): 0.013
Compound: BrCCCCCCCCBr [1,8-dibromooctane]

Henry solubility constant Hcp (reference: Li et al. (2007)): 290
Compound: O=C(O)c1ccccc1 [benzenecarboxylic acid]

Henry solubility constant Hcp (reference: Haimi et al. (2006)): 0.0041
Compound: c1ccsc1 [thiophene]

Henry solubility constant Hcp (reference: Butler et al. (1935)): 0.7 | Henry solubility constant Hcp (reference: Fenclová et al. (2010)): 0.78
Compound: CCC(C)CO (stereo not drawn) [2-methyl-1-butanol]

Henry solubility constant Hcp (reference: Haimi et al. (2006)): 0.0013 | Henry solubility constant Hcp (reference: Zin et al. (2016)): 0.0016
Compound: CC(C)S [2-propanethiol]

Henry solubility constant Hcp [4]: 0.066 | Henry solubility constant Hcp (reference: Westcott et al. (1981)): 0.025
Compound: Clc1ccc(-c2ccccc2Cl)cc1Cl [2,3',4'-trichlorobiphenyl]

Further lines, the molecule ahead of its results:

Compound: ClC=CCCl [1,3-dichloropropene]
Henry solubility constant Hcp [2]: 0.0028

Compound: CCCCCO[N+](=O)[O-] [1-pentyl nitrate]
Henry solubility constant Hcp (reference: Hauff et al. (1998)): 0.0066

Compound: Brc1ccc(Oc2ccccc2)cc1 [4-bromodiphenyl ether]
Henry solubility constant Hcp (reference: Charles and Destaillats (2005)): 0.058

Compound: O=C(O)C(Br)Br [dibromoethanoic acid]
Henry solubility constant Hcp (reference: Bowden et al. (1998a)): 2200

Compound: ClC1=C(Cl)C(Cl)(Cl)C(Cl)=C1Cl [hexachlorocyclopentadiene]
Henry solubility constant Hcp [2]: 0.0006 | Henry solubility constant Hcp (reference: Wolfe et al. (1982)): 0.00037

Compound: O=C(O)C(Cl)(Cl)Cl [trichloroethanoic acid]
Henry solubility constant Hcp (reference: Bowden et al. (1998b)): 730

Compound: CCCCO[N+](=O)[O-] [1-butyl nitrate]
Henry solubility constant Hcp (reference: Hauff et al. (1998)): 0.0063 | Henry solubility constant Hcp (reference: Luke et al. (1989)): 0.01

Compound: COP(=O)(OC)C(O)C(Cl)(Cl)Cl (stereo not drawn)
Henry solubility constant Hcp (reference: Kawamoto and Urano (1989)): > 810

Compound: C1=Cc2cccc3cccc1c23 [acenaphthylene]
Henry solubility constant Hcp [2]: 0.087

Compound: Clc1cc(Cl)c(-c2c(Cl)ccc(Cl)c2Cl)cc1Cl [2,2',3,4',5',6-hexachlorobiphenyl]
Henry solubility constant Hcp [4]: 0.033

Compound: Clc1cc(Cl)c(Cl)cc1Cl [1,2,4,5-tetrachlorobenzene]
Henry solubility constant Hcp (reference: McPhedran et al. (2013)): 0.018

Compound: CNC(C)=O [N-methylacetamide]
Henry solubility constant Hcp (reference: Bernauer and Dohnal (2008)): 3200

Compound: c1cc2c3c(cccc3c1)CC2 [acenaphthene]
Henry solubility constant Hcp (reference: Mackay et al. (1979)): 0.068 | Henry solubility constant Hcp [2]: 0.041

Compound: Cc1cc(C)nc(Nc2ccccc2)n1 [pyrimethanil]
Henry solubility constant Hcp (reference: Feigenbrugel and Le Calvé (2021)): 340

Compound: Clc1cc(Cl)c(-c2cc(Cl)c(Cl)cc2Cl)cc1Cl [2,2',4,4',5,5'-hexachlorobiphenyl]
Henry solubility constant Hcp [4]: 0.028

Compound: Clc1c(Cl)c(Cl)c2c(c1Cl)Oc1ccccc1O2 [1,2,3,4-tetrachlorodibenzo-p-dioxin]
Henry solubility constant Hcp (reference: Santl et al. (1994)): 0.5

Compound: CCCCCCO[N+](=O)[O-] [1-hexyl nitrate]
Henry solubility constant Hcp (reference: Hauff et al. (1998)): 0.0076

Compound: ClC1=C(Cl)[C@]2(Cl)[C@H]3[C@H](Cl)[C@@H](Cl)C[C@H]3[C@@]1(Cl)C2(Cl)Cl [trans-chlordane]
Henry solubility constant Hcp (reference: Jantunen and Bidleman (2006)): 0.034

Compound: CCCl [chloroethane]
Henry solubility constant Hcp (reference: Chen et al. (2012)): 0.00076 | Henry solubility constant Hcp (reference: Gossett (1987)): 0.00088 | Henry solubility constant Hcp (reference: Maaßen (1995)): 0.00089 | Henry solubility constant Hcp (reference: Reichl (1995)): 0.00093

Compound: FCC(F)(F)F [1,1,1,2-tetrafluoroethane]
Henry solubility constant Hcp [8]: 0.00019 | Henry solubility constant Hcp (reference: Maaßen (1995)): 0.00016 | Henry solubility constant Hcp (reference: Reichl (1995)): 0.00016 | Henry solubility constant Hcp (reference: Zheng et al. (1997)): 0.00016

Compound: ClCC(Cl)CCl [1,2,3-trichloropropane]
Henry solubility constant Hcp (reference: Tancrède and Yanagisawa (1990)): 0.044

Compound: Clc1ccc2c(c1)Oc1ccc(Cl)cc1O2 [2,7-dichlorodibenzo-p-dioxin]
Henry solubility constant Hcp (reference: Santl et al. (1994)): 0.17

Compound: Fc1c(F)c(F)c(F)c(F)c1F [hexafluorobenzene]
Henry solubility constant Hcp (reference: Schröder et al. (2011)): 0.00029

Compound: Clc1ccc(-c2cc(Cl)ccc2Cl)c(Cl)c1 [2,2',4,5'-tetrachlorobiphenyl]
Henry solubility constant Hcp [4]: 0.049

Compound: C1CO1 [oxirane]
Henry solubility constant Hcp (reference: Conway et al. (1983)): 0.058

Compound: FC(F)Cl [chlorodifluoromethane]
Henry solubility constant Hcp (reference: Boggs and Buck (1958)): 0.00035 | Henry solubility constant Hcp [8]: 0.00017 | Henry solubility constant Hcp (reference: Maaßen (1995)): 0.00035 | Henry solubility constant Hcp (reference: Reichl (1995)): 0.00035 | Henry solubility constant Hcp (reference: Zheng et al. (1997)): 0.00034

Compound: O=CC(=O)O [oxoethanoic acid]
Henry solubility constant Hcp (reference: Ip et al. (2009)): 110

Compound: [CH3][Sn]([CH3])([CH3])[CH3] [tetramethylstannane]
Henry solubility constant Hcp (reference: Abraham and Nasehzadeh (1981)): 9.4e-06

Compound: C=CC(=C)C [2-methyl-1,3-butadiene]
Henry solubility constant Hcp (reference: Leng et al. (2013)): 0.00034 | Henry solubility constant Hcp [7]: 0.0003
